Among the data in ChEMBL document CHEMBL1949641, “Anti-inflammatory mechanism of 15,16-epoxy-3α-hydroxylabda-8,13(16),14-trien-7-one via inhibition of LPS-induced multicellular signaling pathways” (J Nat Prod, 2012) are inhibition, IC50 and Activity values, retold here.

Structures are written as SMILES. Activity calls are given as the source filed them. The calls are words filed in the database; no cut-off is given here.

The subject of data set [1] is RAW264.7. In words: Inhibition of NF-kappaB transcriptional activity expressed in mouse RAW264.7 cells assessed as inhibition of LPS-induced secretory alkaline phosphatase expression at 10 uM treated 2 hrs before LPS challenge measured after 18 hrs. It counts as cell-based.
The test system of data set [2] is RAW264.7. In words: Antiinflammatory activity in mouse RAW264.7 cells assessed as inhibition of LPS-induced TNFalpha by ELISA. Format: functional, cell-based.
Data set [3] deals with RAW264.7. Briefly: Inhibition of NF-kappaB transcriptional activity expressed in mouse RAW264.7 cells assessed as inhibition of LPS-induced secretory alkaline phosphatase expression at 5 uM treated 2 hrs before LPS challenge measured after 18 hrs. It counts as cell-based.
Data set [4] relates to RAW264.7. In words: Inhibition of NF-kappaB transcriptional activity expressed in mouse RAW264.7 cells assessed as inhibition of LPS-induced secretory alkaline phosphatase expression at 50 uM treated 2 hrs before LPS challenge measured after 18 hrs. Format: cell-based.
The subject of data set [5] is RAW264.7. Briefly: Inhibition of NF-kappaB transcriptional activity expressed in mouse RAW264.7 cells assessed as inhibition of LPS-induced secretory alkaline phosphatase expression at 15 uM treated 2 hrs before LPS challenge measured after 18 hrs. Format: cell-based.
The target of data set [6] is T1, Nuclear factor NF-kappa-B p105 subunit (Mus musculus) (UniProt P25799).
T1 sequence (whole entry): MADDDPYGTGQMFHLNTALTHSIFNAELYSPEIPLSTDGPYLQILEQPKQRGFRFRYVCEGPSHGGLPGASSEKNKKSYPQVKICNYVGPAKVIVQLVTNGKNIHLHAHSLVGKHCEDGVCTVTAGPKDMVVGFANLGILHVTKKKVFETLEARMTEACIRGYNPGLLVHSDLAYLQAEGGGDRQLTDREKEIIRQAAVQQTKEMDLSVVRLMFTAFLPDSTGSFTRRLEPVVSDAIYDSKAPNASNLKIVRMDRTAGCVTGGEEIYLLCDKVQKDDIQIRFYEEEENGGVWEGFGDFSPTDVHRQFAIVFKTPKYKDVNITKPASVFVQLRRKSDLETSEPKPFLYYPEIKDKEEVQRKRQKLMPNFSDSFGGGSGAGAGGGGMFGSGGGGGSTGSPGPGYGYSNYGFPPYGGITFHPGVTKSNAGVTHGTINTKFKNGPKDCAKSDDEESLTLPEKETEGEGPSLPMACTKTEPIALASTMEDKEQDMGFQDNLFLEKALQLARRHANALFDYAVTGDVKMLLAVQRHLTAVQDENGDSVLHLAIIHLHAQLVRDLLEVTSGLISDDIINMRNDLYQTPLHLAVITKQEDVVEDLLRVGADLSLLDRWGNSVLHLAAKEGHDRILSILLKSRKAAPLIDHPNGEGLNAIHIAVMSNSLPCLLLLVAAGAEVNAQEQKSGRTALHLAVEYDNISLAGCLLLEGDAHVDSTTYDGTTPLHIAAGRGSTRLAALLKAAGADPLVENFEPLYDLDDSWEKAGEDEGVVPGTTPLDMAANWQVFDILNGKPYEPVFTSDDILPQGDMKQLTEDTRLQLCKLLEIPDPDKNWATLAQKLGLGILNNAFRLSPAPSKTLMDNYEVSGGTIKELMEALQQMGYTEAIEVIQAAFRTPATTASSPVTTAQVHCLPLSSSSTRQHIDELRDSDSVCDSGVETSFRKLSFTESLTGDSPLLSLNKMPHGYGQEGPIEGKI
In words: Inhibition of LPS-induced NF-kappaB p50 nuclear translocation in mouse RAW264.7 cells treated 2 hrs before LPS challenge measured up to 1 hr Western blot analysis. Format: cell-based. In general terms: A western blot detects proteins with antibodies after separation by electrophoresis.

Data set [7] concerns RAW264.7. In words: Cytotoxicity against mouse RAW264.7 cells assessed as cell viability up to 50 uM after 24 hrs by MTT assay. Format: cell-based. Conditions: raw264.7, 24 h. On the technique in general: Formazan colour is commonly taken as a measure of viable cells.
Data set [8] has as its system RAW264.7. In words: Inhibition of LPS-induced NF-kappaB activation in mouse RAW264.7 cells assessed as inhibition p38alpha/beta phosphorylation at 50 uM treated 2 hrs before LPS challenge measured after 30 mins by Western blot analysis. Format: cell-based.
For data set [9], the system named is RAW264.7. In words: Inhibition of LPS-induced NF-kappaB activation in mouse RAW264.7 cells assessed as inhibition JNK phosphorylation at 50 uM treated 2 hrs before LPS challenge measured after 30 mins by Western blot analysis. Format: cell-based.
The subject of data set [10] is RAW264.7. Briefly: Antiinflammatory activity in mouse RAW264.7 cells assessed as inhibition of LPS-induced iNOS expression treated 2 hrs before LPS challenge measured after 18 hrs by Western blotting. It counts as functional, cell-based.
Data set [11] has as its target Transcription factor p65 (Mus musculus) (UniProt Q04207). Briefly: Inhibition of LPS-induced NF-kappaB p65 nuclear translocation in mouse RAW264.7 cells treated 2 hrs before LPS challenge measured up to 1 hr Western blot analysis. Format: cell-based.
For data set [12], the system named is RAW264.7. In words: Inhibition of NF-kappaB transcriptional activity expressed in mouse RAW264.7 cells assessed as inhibition of LPS-induced secretory alkaline phosphatase expression treated 2 hrs before LPS challenge measured after 18 hrs. Format: cell-based.
Data set [13] has as its system RAW264.7. Briefly: Inhibition of LPS-induced NFkappaB/AP-1 DNA binding activity in mouse RAW264.7 cells treated 2 hrs before LPS challenge measured after 1 hr by electrophoretic mobility shift assay. Format: cell-based.
The test system of data set [14] is RAW264.7. Briefly: Antiinflammatory activity in mouse RAW264.7 cells assessed as inhibition of LPS-induced nitric oxide production treated 2 hrs before LPS challenge measured after 18 hrs by Griess reaction method. Format: functional, cell-based.
The test system of data set [15] is RAW264.7. Briefly: Inhibition of NF-kappaB activation in mouse RAW264.7 cells assessed as inhibition of LPS-induced IkappaBalpha phosphorylation at 50 uM treated 2 hrs before LPS challenge measured after 15 to 20 mins by Western blotting. Format: cell-based.
Data set [16] relates to RAW264.7. Briefly: Inhibition of LPS-induced Akt phosphorylation in mouse RAW264.7 cells treated 2 hrs before LPS challenge measured after 15 to 30 mins by Western blot analysis. It counts as cell-based.
Data set [17] deals with RAW264.7. Briefly: Inhibition of LPS-induced NF-kappaB activation in mouse RAW264.7 cells assessed as inhibition ERK phosphorylation at 50 uM treated 2 hrs before LPS challenge measured after 10 to 30 mins by Western blot analysis. Format: cell-based.
Data set [18] deals with RAW264.7. In words: Inhibition of NF-kappaB transcriptional activity expressed in mouse RAW264.7 cells assessed as inhibition of LPS-induced secretory alkaline phosphatase expression at 25 uM treated 2 hrs before LPS challenge measured after 18 hrs. Format: cell-based.
For data set [19], the system named is RAW264.7. In words: Antiinflammatory activity in mouse RAW264.7 cells assessed as inhibition of LPS-induced COX2 expression treated 2 hrs before LPS challenge measured after 18 hrs by Western blotting. It counts as functional, cell-based.
Data set [20] deals with RAW264.7. Briefly: Inhibition of NF-kappaB activation in mouse RAW264.7 cells assessed as protection of LPS-induced IkappaBalpha degradation at 50 uM treated 2 hrs before LPS challenge measured after 10 to 20 mins by Western blotting. It counts as cell-based.

One may read the inhibition as the percentage by which the read-out fell short of the control. For orientation: IC50 means the concentration that inhibits the measured activity by half.

Sequence of Transcription factor p65 (Mus musculus) (Q04207 whole entry): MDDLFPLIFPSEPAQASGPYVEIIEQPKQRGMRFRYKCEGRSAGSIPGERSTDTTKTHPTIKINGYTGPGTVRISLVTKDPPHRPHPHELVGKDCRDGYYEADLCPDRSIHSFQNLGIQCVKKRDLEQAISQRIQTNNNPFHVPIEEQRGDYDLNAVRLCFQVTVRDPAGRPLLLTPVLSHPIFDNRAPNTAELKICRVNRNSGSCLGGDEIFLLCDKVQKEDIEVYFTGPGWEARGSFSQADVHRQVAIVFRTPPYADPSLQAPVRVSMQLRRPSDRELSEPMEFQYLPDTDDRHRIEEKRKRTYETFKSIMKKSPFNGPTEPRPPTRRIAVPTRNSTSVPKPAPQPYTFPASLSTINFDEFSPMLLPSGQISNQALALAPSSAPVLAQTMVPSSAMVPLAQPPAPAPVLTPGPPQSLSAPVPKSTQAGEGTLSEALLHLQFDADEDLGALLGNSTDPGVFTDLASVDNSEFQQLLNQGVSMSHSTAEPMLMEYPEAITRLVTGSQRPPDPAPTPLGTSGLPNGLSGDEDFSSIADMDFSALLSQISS

Consider `Cc1ccc(S(=O)(=O)N[C@@H](Cc2ccccc2)C(=O)CCl)cc1`, for which the inhibition result in the data set on RAW264.7 [1] was “Active”.

For `CC1=C(CCc2ccoc2)[C@@]2(C)CC[C@@H](O)C(C)(C)[C@@H]2CC1=O`, the values for the IC50 in the data set with RAW264.7 [2] and with RAW264.7 [14] were 38.5 µM and 27 µM, respectively. Further, the inhibition in the data set with RAW264.7 [3] is 20.9%; in the data set on RAW264.7 [4], 90.3%; in the data set on RAW264.7 [5], 56.6%; in data set [6], “Dose-dependent effect”; in the data set on RAW264.7 [10] it was “Dose-dependent effect”; in [11] it was “Dose-dependent effect”. For the same molecule, the inhibition entry is “Dose-dependent effect” in the data set with RAW264.7 [12], “Dose-dependent effect” in the data set with RAW264.7 [13], 69.1% in the data set with RAW264.7 [18] and “Dose-dependent effect” with RAW264.7 [19]. Moreover, in the data set with RAW264.7 [7], the Activity entry was “Non-toxic”. For the same molecule, the inhibition entry with RAW264.7 [8], in the data set with RAW264.7 [9], with RAW264.7 [15], in the data set on RAW264.7 [16] and with RAW264.7 [17] was “Active” throughout. The result in the data set on RAW264.7 [20] was Active.
